Assay results: patent US20130252935A1, “Monobactams” (PFIZER INC., priority 2010, published 2013)
Values after ≈ are worked out from the molar mass of the structure shown.

What was measured:
Format in all cases: cell-based
[1] = test system: Acinetobacter baumannii/haemolyticus AB-3167; test: minimum inhibitory concentration (MIC) testing according to CLSI guidelines, Acinetobacter; settings: multidrug-resistant clinical isolate AB-3167, overnight incubation, lower of duplicate values; for MIC: Acinetobacter baumannii, read-out: AB-MBT: Acinetobacter baumanii AB-3167: MIC (MstRcnt)
Procedure: (§1) In order to assess the compounds biological activity, the in vitro anti-bacterial activity of selected compounds described in the Examples 1-69 was evaluated by minimum inhibitory concentration (MIC) testing according to Clinical and Laboratory Standards Institute (CLSI, formerly NCCLS) guidelines. See: Clinical and Laboratory Standards Institute. Methods for Dilution Antimicrobial Susceptibility Tests for Bacteria that Grow Aerobically; Approved Standard-Eighth Edition. CLSI document M7-A8 [ISBN 1-56238-689-1]. Clinical and Laboratory Standards Institute, 940 West Valley Road, Suite 1400, Wayne, Pa. 19087-1898 USA, 2006; also Clinical and Laboratory Standards Institute. Performance Standards for Antimicrobial Susceptibility Testing; Twentieth Informational Supplement. CLSI document M100-S20 [ISBN1-56238-716-2]. Clinical and Laboratory Standards Institute.
(§2) The MIC determination is a standard laboratory method for evaluating the antibacterial activity of a compound. The MIC represents the lowest drug concentration that inhibits visible growth of bacteria following overnight incubation. […] Typically, the drug concentration range is broken down into 2-fold increments (e.g. 0.06 μg/mL, 0.12 μg/mL. 0.25 μg/mL, 0.50 μg/mL, 1.0 μg/mL, etc.) and the various drug concentrations are all individually incubated overnight with approximately the same number of bacteria. The MIC is then determined by visually inspecting the drug effect at each concentration, and identifying the lowest drug concentration that has inhibited bacterial growth as compared to the drug free control. Typically, bacteria continue to grow at drug concentrations lower than the MIC and don't grow at concentrations at and above the MIC.
(§3) The MIC values described in Table 1 below were derived from assays wherein each test compound was evaluated in duplicate. In cases where the duplicate values varied by 0-2-fold, the lower of the two values was reported below. Generally speaking, if the duplicate values varied by more than 2-fold, the assay was considered non-valid and was repeated until the variation between duplicate runs was ≦2-fold. In line with the CLSI guidelines referred to above, both control organisms and reference compounds were utilized in each MIC assay to provide proper quality control. MIC values generated with these control organisms and reference compounds were required to fall within a defined range for the assay to be considered valid and be included herein. Those skilled in the art will recognize that MIC values can and do vary from experiment to experiment. Generally speaking, it should be recognized that MIC values often vary +/−2-fold from experiment to experiment. While a single MIC is reported for each compound and each microorganism, the reader should not conclude that each compound was only tested once. Several of the compounds were subjected to multiple tests. The data reported in Table 1 is reflective of the compounds relative activity and different MICs may have been generated on these occasions in light with the guidelines described above.
(§4) The following bacterial strains were used in these MIC determinations:
3) Acinetobacter baumannii/haemolyticus: Multidrug-resistant clinical isolate, labeled as AB-3167.

[2] = test system: Pseudomonas aeruginosa UC-12120; test: minimum inhibitory concentration (MIC) testing according to CLSI guidelines, Pseudomonas aeruginosa; settings: UC-12120, wild-type, labeled as 1091-05, overnight incubation, lower of duplicate values; for MIC: Pseudomonas aeruginosa, UC12120, read-out: AB-MBT: Pseudomonas aeruginosa 1091-05: MIC (MstRcn)
Procedure: as §1, §2, §3, §4
1) Pseudomonas aeruginosa UC-12120: Wild-type, labeled as 1091-05;

[3] = test system: Klebsiella pneumoniae 1000-02; test: minimum inhibitory concentration (MIC) testing according to CLSI guidelines, Klebsiella pneumoniae; settings: ciprofloxacin-resistant, ESBL-expressing clinical isolate 1000-02, overnight incubation, lower of duplicate values; for MIC: Klebsiella pneumoniae, read-out: AB-MBT: Klebsiella pneumoniae 1000-02: MIC (MstRcnt)
Procedure: as §1, §2, §3, §4
2) Klebsiella pneumoniae: Ciprofloxacin-resistant isolate, expresses extended-spectrum beta-lactamases (ESBL), clinical isolate, labeled as 1000-02;

| SMILES | MIC [2] | MIC [3] | AB-MBT: Pseudomonas aeruginosa 1091-05: MIC (MstRcn) [2] | AB-MBT: Klebsiella pneumoniae 1000-02: MIC (MstRcnt) [3] | MIC [1] | AB-MBT: Acinetobacter baumanii AB-3167: MIC (MstRcnt) [1] |
| --- | --- | --- | --- | --- | --- | --- |
| CC(C)(O/N=C(\C(=O)N[C@@H]1C(=O)N(S(=O)(=O)O)[C@@H]1Cn1cc(-c2cc(=O)c(O)c[nH]2)nn1)c1csc(N)n1)C(=O)O [Example 2, 2-({[(1Z)-1-(2-amino-1,3-thiazol-4-yl)-2-{[(2R,3S)-2-{[4-(5-hydroxy-4-oxo-1,4-dihydropyridin-2-yl)-1H-1,2,3-triazol-1-yl]methyl}-4-oxo-1-sulfoazetidin-3-yl]amino}-2-oxoethylidene]amino}oxy)-2-methylpropanoic acid] | 2 µg/mL (≈ 3.27 µM) | 8 µg/mL (≈ 13.1 µM) |  |  | 8 µg/mL (≈ 13.1 µM) |  |
| CC(C)(O/N=C(\C(=O)N[C@@H]1C(=O)N(S(=O)(=O)[O-])[C@@H]1CNC(=O)c1cc(-c2cc(=O)c(O)cn2O)no1)c1csc(N)n1)C(=O)[O-].[Na+].[Na+] [Example 15, 2-({[(1Z)-1-(2-amino-1,3-thiazol-4-yl)-2-({(2R,3S)-2-[({[3-(1,5-dihydroxy-4-oxo-1,4-dihydropyridin-2-yl)isoxazol-5-yl]carbonyl}amino)methyl]-4-oxo-1-sulfoazetidin-3-yl}amino)-2-oxoethylidene]amino}oxy)-2-methylpropanoic acid, bis sodium salt] |  |  | 0.250 µg/mL | 1.00 µg/mL |  | 0.250 µg/mL |
| CC(C)(O/N=C(\C(=O)N[C@@H]1C(=O)N(S(=O)(=O)O)[C@@H]1CNC(=O)c1ccnc(-c2cc(=O)c(O)cn2O)n1)c1csc(N)n1)C(=O)O [Example 23, 2-({[(1Z)-1-(2-amino-1,3-thiazol-4-yl)-2-({(2R,3S)-2-[({[2-(1,5-dihydroxy-4-oxo-1,4-dihydropyridin-2-yl)pyrimidin-4-yl]carbonyl}amino)methyl]-4-oxo-1-sulfoazetidin-3-yl}amino)-2-oxoethylidene]amino}oxy)-2-methylpropanoic acid] | 1 µg/mL (≈ 1.47 µM) | 0.25 µg/mL (≈ 0.367 µM) |  |  | 0.25 µg/mL (≈ 0.367 µM) |  |
| Nc1nc(/C(=N/O[C@@H](Cc2ccccc2)C(=O)O)C(=O)N[C@@H]2C(=O)N(S(=O)(=O)O)[C@@H]2CNC(=O)NCc2cc(=O)c(O)cn2O)cs1 [Example 32, (2S)-2-({[(1Z)-1-(2-amino-1,3-thiazol-4-yl)-2-({(2R,3S)-2-[({[(1,5-dihydroxy-4-oxo-1,4-dihydropyridin-2-yl)methyl]carbamoyl}amino)methyl]-4-oxo-1-sulfoazetidin-3-yl}amino)-2-oxoethylidene]amino}oxy)-3-phenylpropanoic acid] | 1 µg/mL (≈ 1.44 µM) | 1 µg/mL (≈ 1.44 µM) |  |  | 1 µg/mL (≈ 1.44 µM) |  |
| Nc1nc(/C(=N/OC2(C(=O)O)CCC2)C(=O)N[C@@H]2C(=O)N(S(=O)(=O)O)[C@@H]2CNC(=O)c2ccc(CNC(=O)c3cc(O)c(O)cn3)cc2)cs1 [Example 61, 1-({[(1Z)-1-(2-amino-1,3-thiazol-4-yl)-2-{[(2R,3S)-2-({[4-({[(4,5-dihydroxypyridin-2-yl)carbonyl]amino}methyl)benzoyl]amino}methyl)-4-oxo-1-sulfoazetidin-3-yl]amino}-2-oxoethylidene]amino}oxy)cyclobutanecarboxylic acid] | 32 µg/mL (≈ 43.7 µM) | 2 µg/mL (≈ 2.73 µM) |  |  | 1 µg/mL (≈ 1.36 µM) |  |
| CC(C)C[C@H](O/N=C(\C(=O)N[C@@H]1C(=O)N(S(=O)(=O)O)[C@@H]1CNC(=O)NCc1cc(=O)c(O)cn1O)c1csc(N)n1)C(=O)O [Example 31, (2S)-2-({[(1Z)-1-(2-amino-1,3-thiazol-4-yl)-2-({(2R,3S)-2-[({[(1,5-dihydroxy-4-oxo-1,4-dihydropyridin-2-yl)methyl]carbamoyl}amino)methyl]-4-oxo-1-sulfoazetidin-3-yl}amino)-2-oxoethylidene]amino}oxy)-4-methylpentanoic acid] | 1 µg/mL (≈ 1.51 µM) | 0.5 µg/mL (≈ 0.757 µM) |  |  | 0.5 µg/mL (≈ 0.757 µM) |  |

The next lines start with results.

| MIC [2] | MIC [3] | AB-MBT: Pseudomonas aeruginosa 1091-05: MIC (MstRcn) [2] | AB-MBT: Klebsiella pneumoniae 1000-02: MIC (MstRcnt) [3] | SMILES | MIC [1] | AB-MBT: Acinetobacter baumanii AB-3167: MIC (MstRcnt) [1] |
| --- | --- | --- | --- | --- | --- | --- |
| 0.25 µg/mL (≈ 0.372 µM) | 0.25 µg/mL (≈ 0.372 µM) |  |  | CC(C)(O/N=C(\C(=O)N[C@@H]1C(=O)N(S(=O)(=O)O)[C@@H]1Cn1cc(COCc2cc(=O)c(O)cn2O)nn1)c1csc(N)n1)C(=O)O [Example 1, 2-({[(1Z)-1-(2-amino-1,3-thiazol-4-yl)-2-({(2R,3S)-2-[(4-{[(1,5-dihydroxy-4-oxo-1,4-dihydropyridin-2-yl)methoxy]methyl}-1H-1,2,3-triazol-1-yl)methyl]-4-oxo-1-sulfoazetidin-3-yl}amino)-2-oxoethylidene]amino}oxy)-2-methylpropanoic acid] | 0.5 µg/mL (≈ 0.744 µM) |  |
| 1 µg/mL (≈ 1.34 µM) | 0.25 µg/mL (≈ 0.334 µM) |  |  | Nc1nc(/C(=N/OC2(C(=O)O)CCC2)C(=O)N[C@@H]2C(=O)N(S(=O)(=O)O)[C@@H]2CNC(=O)c2cccc(C(=O)NCc3cc(=O)c(O)cn3O)c2)cs1 [Example 64, 1-({[(1Z)-1-(2-amino-1,3-thiazol-4-yl)-2-{[(2R,3S)-2-{[(3-{[(1,5-dihydroxy-4-oxo-1,4-dihydropyridin-2-yl)methyl]carbamoyl}benzoyl)amino]methyl}-4-oxo-1-sulfoazetidin-3-yl]amino}-2-oxoethylidene]amino}oxy)cyclobutanecarboxylic acid] | 0.5 µg/mL (≈ 0.668 µM) |  |
| 0.125 µg/mL | 4 µg/mL |  |  | CC(C)(O/N=C(\C(=O)N[C@@H]1C(=O)N(S(=O)(=O)[O-])[C@@H]1CNC(=O)OCc1cc(=O)c(O)cn1O)c1csc(N)n1)C(=O)[O-].[Na+].[Na+] [Example 5, disodium 2-({[(1Z)-1-(2-amino-1,3-thiazol-4-yl)-2-({(2R,3S)-2-[({[(1,5-dihydroxy-4-oxo-1,4-dihydropyridin-2-yl)methoxy]carbonyl}amino)methyl]-4-oxo-1-sulfonatoazetidin-3-yl}amino)-2-oxoethylidene]amino}oxy)-2-methylpropanoate] | 1 µg/mL |  |
| 0.25 µg/mL (≈ 0.374 µM) | 1 µg/mL (≈ 1.5 µM) |  |  | N#C/N=C(\NCc1cc(=O)c(O)cn1O)NC[C@@H]1[C@H](NC(=O)/C(=N\OC2(C(=O)O)CCC2)c2csc(N)n2)C(=O)N1S(=O)(=O)O [Example 63, 1-({[(1Z)-1-(2-amino-1,3-thiazol-4-yl)-2-{[(2R,3S)-2-({[(Z)-(cyanoimino){[(1,5-dihydroxy-4-oxo-1,4-dihydropyridin-2-yl)methyl]amino}methyl]amino}methyl)-4-oxo-1-sulfoazetidin-3-yl]amino}-2-oxoethylidene]amino}oxy)cyclobutanecarboxylic acid] | 0.5 µg/mL (≈ 0.748 µM) |  |
| 0.25 µg/mL (≈ 0.352 µM) | 2 µg/mL (≈ 2.82 µM) |  |  | CC(C)(O/N=C(\C(=O)N[C@@H]1C(=O)N(S(=O)(=O)O)[C@@H]1CNc1ccc(C(=O)NCc2cc(=O)c(O)cn2O)cn1)c1csc(N)n1)C(=O)O [Example 46, 2-({[(1Z)-1-(2-amino-1,3-thiazol-4-yl)-2-{[(2R,3S)-2-{[(5-{[(1,5-dihydroxy-4-oxo-1,4-dihydropyridin-2-yl)methyl]carbamoyl}pyridin-2-yl)amino]methyl}-4-oxo-1-sulfoazetidin-3-yl]amino}-2-oxoethylidene]amino}oxy)-2-methylpropanoic acid] | 0.5 µg/mL (≈ 0.705 µM) |  |
| 0.125 µg/mL (≈ 0.179 µM) | 0.25 µg/mL (≈ 0.357 µM) |  |  | CC(C)(O/N=C(\C(=O)N[C@@H]1C(=O)N(S(=O)(=O)O)[C@@H]1CNC(=O)NCc1cc(-c2cc(=O)c(O)cn2O)no1)c1csc(N)n1)C(=O)O [Example 47, 2-({[(1Z)-1-(2-amino-1,3-thiazol-4-yl)-2-{[(2R,3S)-2-{[({[3-(1,5-dihydroxy-4-oxo-1,4-dihydropyridin-2-yl)isoxazol-5-yl]methyl}carbamoyl)amino]methyl}-4-oxo-1-sulfoazetidin-3-yl]amino}-2-oxoethylidene]amino}oxy)-2-methylpropanoic acid] | 0.25 µg/mL (≈ 0.357 µM) |  |
